Reference: ChEMBL document CHEMBL2321716, “Exploring a new frontier in cancer treatment: targeting the ubiquitin and ubiquitin-like activating enzymes” (J Med Chem, 2013)

Experiments:
[1] = target: T1, NEDD8-activating enzyme E1 catalytic subunit (Homo sapiens, UniProt Q8TBC4); assay: Inhibition of NAE (unknown origin)-catalyzed transthiolation of NEDD8 from NAE to Ubc12
T1 sequence (Q8TBC4 whole entry): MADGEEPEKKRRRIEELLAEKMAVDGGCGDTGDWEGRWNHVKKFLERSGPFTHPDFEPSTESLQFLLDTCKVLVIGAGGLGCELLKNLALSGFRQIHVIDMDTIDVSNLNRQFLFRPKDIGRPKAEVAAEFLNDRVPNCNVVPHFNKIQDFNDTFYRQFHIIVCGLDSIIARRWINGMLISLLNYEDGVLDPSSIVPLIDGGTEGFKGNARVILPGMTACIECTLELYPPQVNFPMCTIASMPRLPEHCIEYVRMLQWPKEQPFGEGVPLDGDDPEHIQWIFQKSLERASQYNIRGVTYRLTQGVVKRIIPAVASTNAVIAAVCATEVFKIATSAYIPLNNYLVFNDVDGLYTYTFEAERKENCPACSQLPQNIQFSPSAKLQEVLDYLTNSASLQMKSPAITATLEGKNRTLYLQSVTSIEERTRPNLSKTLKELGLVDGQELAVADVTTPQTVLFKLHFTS

[2] = target: T2, NEDD8-activating enzyme E1 regulatory subunit (Homo sapiens, UniProt Q13564); assay: Inhibition of NAE (unknown origin) assessed as decrease in NEDD8-Ubcl2 formation
T2 sequence (Q13564 whole entry): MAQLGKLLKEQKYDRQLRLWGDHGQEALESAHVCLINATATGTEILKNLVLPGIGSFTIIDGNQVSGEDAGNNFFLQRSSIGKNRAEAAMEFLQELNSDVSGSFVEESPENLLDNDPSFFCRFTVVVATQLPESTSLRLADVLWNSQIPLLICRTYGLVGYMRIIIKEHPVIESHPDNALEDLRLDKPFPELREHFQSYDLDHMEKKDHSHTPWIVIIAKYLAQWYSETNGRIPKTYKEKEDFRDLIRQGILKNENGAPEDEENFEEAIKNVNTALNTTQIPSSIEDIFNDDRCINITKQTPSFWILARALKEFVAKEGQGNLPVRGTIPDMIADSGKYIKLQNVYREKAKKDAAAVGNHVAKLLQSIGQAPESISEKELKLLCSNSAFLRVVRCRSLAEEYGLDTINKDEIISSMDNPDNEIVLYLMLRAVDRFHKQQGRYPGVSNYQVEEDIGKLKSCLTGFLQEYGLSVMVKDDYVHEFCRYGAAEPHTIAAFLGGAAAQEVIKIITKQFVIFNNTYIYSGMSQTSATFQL

MCF7 = assay: Cytotoxicity against human MCF7 cells after 48 hrs by WST8 assay; assay type: functional, cell-based; details: MCF7, 48 h
[3] = Inhibition of recombinant yeast UAE-catalyzed UAE-Ub intermediate formation after 15 mins by densitometric analysis; parameters: species or system Saccharomyces cerevisiae
[4] = target: T3, SUMO-activating enzyme subunit 1 (Homo sapiens, UniProt Q9UBE0); assay: Inhibition of recombinant SAE1(unknown origin)-mediated SUMOylation of RanGAP1-C2
T3 sequence (Q9UBE0 whole entry): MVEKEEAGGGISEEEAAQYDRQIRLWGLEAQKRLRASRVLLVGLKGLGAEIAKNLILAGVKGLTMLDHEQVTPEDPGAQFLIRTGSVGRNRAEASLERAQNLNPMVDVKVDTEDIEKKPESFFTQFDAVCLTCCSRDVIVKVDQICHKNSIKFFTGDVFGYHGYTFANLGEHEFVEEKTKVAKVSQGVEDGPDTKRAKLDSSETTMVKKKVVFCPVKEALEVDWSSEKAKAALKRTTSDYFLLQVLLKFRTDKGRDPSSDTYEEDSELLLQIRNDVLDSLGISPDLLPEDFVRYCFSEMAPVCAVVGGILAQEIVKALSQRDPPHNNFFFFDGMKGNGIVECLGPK

[5] = target: T3, SUMO-activating enzyme subunit 1; assay: Inhibition of recombinant His-tagged SAE1(unknown origin)-mediated SUMOylation of RanGAP1-C2 by immunoblotting analysis
[6] = Inhibition of N-terminal GST-tagged human UAE-catalyzed [32P]-AMP:[a-32P]-ATP exchange expressed in HI5 insect cells by TLC analysis
[7] = Inhibition of N-terminal GST-tagged human UAE-catalyzed UAE-Ub thioester intermediate formation expressed in HI5 insect cells after 5 mins by SDS-PAGE analysis

Row | IC50 [3] | Structure (SMILES) | IC50 (MCF7) | also measured
1 | – | O=c1cc(-c2ccc(O)cc2)oc2cc(O)c(-c3c(O)cc4oc(-c5ccc(O)cc5)cc(=O)c4c3O)c(O)c12 | – | IC50 [1]: 20 µM; IC50 [2]: 5 µM
2 | 90 µM | CCCCCCCC/C=C/[C@]12C(=O)[C@H]3O[C@H]3[C@H](O)[C@H]1[C@H]1C(=C[C@@H]2CCCCCCCC)C(=O)[C@H]2O[C@H]2[C@@H]1O | 3.6 µM | –
3 | 3.5 µM | CCCC/C=C/[C@]12C(=O)[C@H]3O[C@H]3[C@H](O)[C@H]1[C@H]1C(=C[C@@H]2CCCC)C(=O)[C@H]2O[C@H]2[C@@H]1O | 1 µM | –
4 | – | CCCCCCCCCCCCCCCc1cccc(O)c1C(=O)O [ANACARDIC ACID] | – | IC50 [4]: 2.2 µM
5 | – | C[C@@H]1O[C@@H](O[C@H]2[C@H](O)C[C@H](c3ccc4c(c3O)C(=O)C3=C(C4=O)[C@@]4(O[C@H]5CC[C@H](O)[C@H](C)O5)C(=O)C[C@](C)(O)C[C@@]4(O)C=C3)O[C@@H]2C)CC[C@@H]1O[C@H]1C[C@@H](O)[C@H](O)[C@@H](C)O1 [KERRIAMYCIN B] | – | IC50 [5]: 11.7 µM
6 | – | CCCCCCCCCCNCCSSCc1ccc(Cl)cc1 | – | IC50 [6]: 13 µM; IC50 [7]: 9 µM
7 | 9.4 µM | C/C=C/[C@]12C(=O)[C@H]3O[C@H]3[C@H](O)[C@H]1[C@H]1C(=C[C@@H]2C)C(=O)[C@H]2O[C@H]2[C@@H]1O | 5.4 µM | –
